In paper PMC11191602, “A novel and selective fluorescent ligand for the study of adenosine A2B receptors” (Pharmacology Research & Perspectives, 2024):
Where two headings read alike, the source gives them in different places.

What was measured:
NLuc‐A2BR = biological target: T1, NLuc‐A2BR (Homo sapiens, UniProt P29275); experiment: NanoBRET ligand‐binding kinetics of 200 nM PSB603‐BY630 in HEK293G cells expressing NLuc‐A2BR
T1 construct: expressed in transfected cells
T1 sequence (P29275 1-332): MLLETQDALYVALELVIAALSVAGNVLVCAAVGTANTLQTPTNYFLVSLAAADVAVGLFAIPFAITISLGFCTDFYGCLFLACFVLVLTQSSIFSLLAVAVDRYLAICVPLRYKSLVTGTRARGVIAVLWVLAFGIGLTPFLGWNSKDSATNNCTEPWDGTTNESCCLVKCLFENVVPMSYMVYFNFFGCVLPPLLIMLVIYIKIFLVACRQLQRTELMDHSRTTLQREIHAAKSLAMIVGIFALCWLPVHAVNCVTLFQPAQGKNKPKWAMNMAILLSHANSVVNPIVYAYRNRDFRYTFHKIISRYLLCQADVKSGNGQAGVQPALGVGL
Experimental: (§1) Saturation and competition binding assays were performed as previously described.[36] Briefly, cells were seeded in 96‐well white clear‐bottomed Greiner plates pre‐treated with 10 μg/mL poly‐D‐lysine (Sigma‐Aldrich, Missouri USA) at a density of 30 000–35 000 cells per well in DMEM supplemented with 10% FBS. The following day medium was removed and cells were incubated with PSB603‐BY630 in the presence or absence of 1 μM MRS1706 (saturation binding assays) or competing ligand in the presence of 50 nM PSB603‐BY630 (competition binding assays) in HEPES buffered saline solution (HBSS; 145 mM NaCl, 5 mM KCl, 1.3 mM CaCl2, 1 mM MgSO4, 10 mM HEPES, 2 mM sodium pyruvate, 1.5 mM NaHCO3, 10 mM D‐glucose, pH 7.45) with 0.1% bovine serum albumin for 1 h at 37°C. The NanoLuc substrate, furimazine (Promega Corporation, Wisconsin, USA), was then added to each well (1:400 dilution) and the plate was incubated for 10 min in the dark at 37°C. The resulting bioluminescence resonance energy transfer (BRET) was measured using a PHERAstar FS plate reader (BMG Labtech) at 37°C. For each well, filtered light emissions at 460 nm (80 nm bandpass) and >610 nm (longpass) for the BODIPY630/650 ligand were simultaneously measured. BRET ratios were calculated by dividing the 610 nm emission by the 460 nm emission. All conditions were performed in 2–6 replicates within each plate. For kinetic experiments, cells were preincubated for 10 min with 1:400 dilution of furimazine prior to addition of 200 nM PSB603‐BY630 and BRET ratios determined every 0.5 min. At 60 min, 10 μM MRS‐1706 was added and the ligand‐binding kinetics followed for a further 60 min.
For kinetic binding experiments, the BRET ratio obtained in the absence of fluorescent ligand was determined for each time point and subtracted from the total binding to obtain baseline‐corrected values for total binding at each time point. 60 min after addition of 200 nM PSB603‐BY630, 10 μM MRS‐1706 was added and the dissociation data fitted to the following equation to obtain values for the dissociation rate constant (k off) in min^−1: Y=Yo−NS.e^−koff.t+NS where [Yo] is the binding at time 60 min (when 10 μM MRS‐1706 was added), NS is the non‐specific binding at infinite time, k off is dissociation rate constant. The residence time in min was then calculated as the reciprocal of k off.

[1] = biological target: T2, human A2BR tagged with N‐terminal nanoluciferase (NLuc‐A2BR) (Homo sapiens, UniProt P29275); experiment: NanoBRET saturation binding of PSB603‐BY630 in live HEK293G cells stably expressing NLuc‐A2BR; settings: non‐specific binding defined with 1 μM MRS‐1706, 1 h 37°C, mean of five experiments
T2 construct: expressed in transfected cells
T2 sequence (P29275 1-332): T1 sequence (P29275 1-332)
Experimental: as §1, with “The NanoLuc substrate, furimazine (Promega Corporation, Wisconsin, USA), was then added to each well (1:400 dilution) and the plate was incubated for 10 min in the dark at 37°C.” left out, “All conditions were performed in 2–6 replicates within each plate.” left out, “At 60 min, 10 μM MRS‐1706 was added and the ligand‐binding kinetics followed for a further 60 min.” left out
Data were analyzed using Prism 7.4 software (GraphPad, San Diego, USA). […]

human NLuc‐A1R = biological target: T3, human NLuc‐A1R (Homo sapiens, UniProt P30542); experiment: NanoBRET saturation binding in stable HEK293T cell line expressing NLuc‐A1R; settings: non‐specific defined with 1 μM SLV320; PSB603‐BY630 at concentrations up to 500 nM
T3 construct: expressed in transfected cells
T3 sequence (P30542 1-326): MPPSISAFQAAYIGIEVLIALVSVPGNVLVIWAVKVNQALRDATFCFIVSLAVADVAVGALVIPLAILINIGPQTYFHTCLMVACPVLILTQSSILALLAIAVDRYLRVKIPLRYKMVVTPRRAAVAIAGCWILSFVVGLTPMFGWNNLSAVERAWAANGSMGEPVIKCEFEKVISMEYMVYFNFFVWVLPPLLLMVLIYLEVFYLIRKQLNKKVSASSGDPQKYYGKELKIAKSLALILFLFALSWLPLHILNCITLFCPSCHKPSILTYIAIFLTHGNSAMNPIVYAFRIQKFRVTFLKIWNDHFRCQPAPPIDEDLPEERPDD
Experimental: as §1, with “The following day medium was removed and cells were incubated with PSB603‐BY630 in the presence or absence of 1 μM MRS1706 (saturation binding assays) or competing ligand in the presence of 50 nM PSB603‐BY630 (competition binding assays) in HEPES buffered saline solution (HBSS; 145 mM NaCl, 5 mM KCl, 1.3 mM CaCl2, 1 mM MgSO4, 10 mM HEPES, 2 mM sodium pyruvate, 1.5 mM NaHCO3, 10 mM D‐glucose, pH 7.45) with 0.1% bovine serum albumin for 1 h at 37°C.” left out

In the case of `CCCn1c(=O)[nH]c2[nH]c(-c3ccc(S(=O)(=O)N4CCN(c5ccc(OCCNC(=O)CCCCCNC(=O)COc6ccc(/C=C/C7=[N+]8C(=Cc9ccc(-c%10cccs%10)n9[B-]8(F)F)C=C7)cc6)cc5)CC4)cc3)nc2c1=O` [PSB603‐BY630], the koff (NLuc‐A2BR; 200 nM PSB603‐BY630, 10 μM MRS‐1706 at 60 min, single representative experiment (Figure 5), read-out: K off in representative experiment (converted)) is reported as 0.000933 s⁻¹, the “time to reach binding equilibrium” value (NLuc‐A2BR; 200 nM PSB603‐BY630, 37°C) is reported as at most 60 min and the koff (NLuc‐A2BR; 200 nM PSB603‐BY630, dissociation initiated with 10 μM MRS‐1706 at 60 min, 37°C, 5 experiments, read-out: dissociation rate constant k off (mean) (converted)) is reported as 0.00108 s⁻¹. For the same compound, the residence time (NLuc‐A2BR; reciprocal of k off, 37°C) was 15.4 min, the Kd [1] was 18.3 nM and the “specific binding to NLuc‐A1R” value (human NLuc‐A1R) was “negligible”.
